# According to patent US20240218022A1, “ANTI-VISTA MACROCYCLIC PEPTIDES AND COMPOSITIONS” (BRISTOL-MYERS SQUIBB COMPANY, priority 2022, published 2024):
# Positions of bridges follow the written chain, without caps; N, C: chain ends. Non-standard residues stand in square brackets, D forms with d. Residues, ends and D or L forms follow the SMILES beside them. N(3-phenylpropyl)Gly = O=C(O)CNCCCc1ccccc1; Cit = NC(=O)NCCC[C@H](N)C(=O)O; Ahp(2) = CCCCC[C@H](N)C(=O)O; NMeNle = CCCC[C@H](NC)C(=O)O; Tle = CC(C)(C)[C@H](N)C(=O)O; NHexGly = CCCCCCNCC(=O)O; Nle = CCCC[C@H](N)C(=O)O; Orn = NCCC[C@H](N)C(=O)O
# Target: T1, mouse VISTA (mVISTA) (Mus musculus, UniProt Q9D659)
# T1 construct: expressed in transfected cells; host or cells: Human embryonic kidney 293T cells
# T1 sequence (Q9D659 33-308): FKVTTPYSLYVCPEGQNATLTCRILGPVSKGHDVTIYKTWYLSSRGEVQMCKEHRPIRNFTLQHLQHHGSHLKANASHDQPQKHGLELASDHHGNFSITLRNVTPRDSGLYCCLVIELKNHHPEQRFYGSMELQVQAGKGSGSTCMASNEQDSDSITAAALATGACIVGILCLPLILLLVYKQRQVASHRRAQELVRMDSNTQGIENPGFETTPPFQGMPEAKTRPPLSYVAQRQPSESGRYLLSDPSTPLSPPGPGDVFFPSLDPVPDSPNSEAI
# Assay: Cell-Based Binding High-Content Assay For mVISTA (HC CBA mVISTA)
# Conditions: 293T cells expressing mouse VISTA; competition with biotinylated peptide (2 nM); read-out: CBA mVISTA IC50
# How it was run: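 mVISTA-293T, 4,000 cells/well; cpd ± washout step; biotin-peptide 2 nM final, 30 min RT; SA-Alexa 647 30 min; formaldehyde/Hoechst fix; HCS imaging; 4PL IC50.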
row,Compound,IC50
1,CCCCCCN1CC(=O)N[C@@H](Cc2ccc(O)cc2)C(=O)N[C@@H](CCCCC)C(=O)N[C@@H](CC(=O)O)C(=O)N[C@@H](CCCNC(=N)N)C(=O)N(C)[C@@H](CCCC)C(=O)N[C@@H](CCCCC)C(=O)N2CCC[C@H]2C(=O)N[C@@H](C(C)C)C(=O)N[C@@H](CC(=O)O)C(=O)N[C@H](C(=O)N[C@@H](CCC(=O)O)C(N)=O)CSCC(=O)N[C@@H](Cc2ccccc2)C(=O)N[C@@H](Cc2ccc(O)cc2)C(=O)N[C@@H](CC(=O)O)C1=O [Example 1077] ({CH2CO}-FYD[NHexGly]Y[Ahp(2)]DR[NMeNle][Ahp(2)]PVDCE-NH2; thioether N-14),0.0147 µM
2,CCCCCCN1CC(=O)N[C@@H](Cc2ccc(O)cc2)C(=O)N[C@@H](CCCC)C(=O)N[C@@H](CC(=O)O)C(=O)N[C@@H](CCCNC(=N)N)C(=O)N(C)[C@@H](CCCC)C(=O)N[C@@H](CCCCC)C(=O)N2CCC[C@H]2C(=O)N[C@@H](C(C)C)C(=O)N[C@@H](CC(=O)O)C(=O)N[C@H](C(=O)N[C@@H](CCC(=O)O)C(N)=O)CSCC(=O)N[C@@H](Cc2ccccc2)C(=O)N[C@@H](Cc2ccc(O)cc2)C(=O)N[C@@H](CC(=O)O)C1=O [Example 1078] ({CH2CO}-FYD[NHexGly]Y[Nle]DR[NMeNle][Ahp(2)]PVDCE-NH2; thioether N-14),0.0177 µM
3,CCCCCCN1CC(=O)N[C@@H](Cc2ccc(O)cc2)C(=O)N[C@@H](CCCCC)C(=O)NCC(=O)N[C@@H](CCCNC(=N)N)C(=O)N(C)[C@@H](CCCC)C(=O)N[C@@H](CCCCC)C(=O)N2CCC[C@H]2C(=O)N[C@@H](C(C)C)C(=O)N[C@@H](CO)C(=O)N[C@H](C(=O)NCC(N)=O)CSCC(=O)N[C@@H](Cc2ccccc2)C(=O)N[C@@H](Cc2ccc(O)cc2)C(=O)N[C@@H](CC(=O)O)C1=O [Example 1079] ({CH2CO}-FYD[NHexGly]Y[Ahp(2)]GR[NMeNle][Ahp(2)]PVSCG-NH2; thioether N-14),0.0246 µM
4,CCCCCCN1CC(=O)N[C@@H](Cc2ccc(O)cc2)C(=O)N[C@@H](CC(C)C)C(=O)NCC(=O)N[C@@H](CCCNC(=N)N)C(=O)N(C)[C@@H](CCCC)C(=O)N[C@@H](CCCCC)C(=O)N2CCC[C@H]2C(=O)N[C@@H](C(C)C)C(=O)N[C@@H](CO)C(=O)N[C@H](C(=O)NCC(=O)O)CSCC(=O)N[C@@H](Cc2ccccc2)C(=O)N[C@@H](Cc2ccc(O)cc2)C(=O)N[C@@H](CC(=O)O)C1=O [Example 1080] ({CH2CO}-FYD[NHexGly]YLGR[NMeNle][Ahp(2)]PVSCG-OH; thioether N-14),0.0186 µM
5,CCCCCCN1CC(=O)N[C@@H](Cc2ccc(O)cc2)C(=O)N[C@@H](CCCC)C(=O)N[C@@H](CC(N)=O)C(=O)N[C@@H](CCCNC(N)=O)C(=O)N(C)[C@@H](CCCC)C(=O)N[C@@H](CCCCC)C(=O)N2CCC[C@H]2C(=O)N[C@@H](C(C)C)C(=O)N[C@@H](CC(=O)O)C(=O)N[C@H](C(=O)NCC(=O)O)CSCC(=O)N[C@@H](Cc2ccccc2)C(=O)N[C@@H](Cc2ccc(O)cc2)C(=O)N[C@@H](CC(=O)O)C1=O [Example 1082] ({CH2CO}-FYD[NHexGly]Y[Nle]N[Cit][NMeNle][Ahp(2)]PVDCG-OH; thioether N-14),0.0081 µM

# Second part, the molecule after the results:
row,IC50,Compound
1,0.0046 µM,CCCCCCN1CC(=O)N[C@@H](Cc2ccc(O)cc2)C(=O)N[C@@H](CC(C)C)C(=O)NCC(=O)N[C@@H](CCCNC(=N)N)C(=O)N(C)[C@@H](CCCC)C(=O)N[C@@H](CCCCC)C(=O)N2CCC[C@H]2C(=O)N[C@@H](C(C)C)C(=O)N[C@@H](CO)C(=O)N[C@H](C(=O)NCC(N)=O)CSCC(=O)N[C@@H](Cc2ccccc2)C(=O)N[C@@H](Cc2ccc(O)cc2)C(=O)N[C@@H](CC(=O)O)C1=O [Example 1081] ({CH2CO}-FYD[NHexGly]YLGR[NMeNle][Ahp(2)]PVSCG-NH2; thioether N-14)
2,0.0391 µM,CCCCCCN1CC(=O)N[C@@H](Cc2ccc(O)cc2)C(=O)N[C@@H](CCCC)C(=O)N[C@@H](CC(N)=O)C(=O)N[C@@H](CCCNC(=N)N)C(=O)N(C)[C@@H](CCCC)C(=O)N[C@@H](CCCCC)C(=O)N2CCC[C@H]2C(=O)N[C@@H](C(C)C)C(=O)N[C@@H](CC(=O)O)C(=O)N[C@H](C(=O)NCC(=O)O)CSCC(=O)N[C@@H](Cc2ccccc2)C(=O)N[C@@H](Cc2ccc(O)cc2)C(=O)N[C@@H](CC(=O)O)C1=O [Example 1083] ({CH2CO}-FYD[NHexGly]Y[Nle]NR[NMeNle][Ahp(2)]PVDCG-OH; thioether N-14)

# Same assay, conditions: 293T cells expressing mouse VISTA; competition with biotinylated peptide (2 nM); read-out: HC CBA mVISTA IC50
row,Compound,IC50
1,CCCCCCN1CC(=O)N[C@@H](Cc2ccc(O)cc2)C(=O)N[C@@H](CCCCC)C(=O)N[C@@H](CC(N)=O)C(=O)N[C@@H](CCCNC(=N)N)C(=O)N[C@@H](C)C(=O)N[C@@H](CCCCC)C(=O)N2CCC[C@H]2C(=O)N[C@@H](C(C)C)C(=O)N[C@@H](CO)C(=O)N[C@H](C(=O)NCC(N)=O)CSCC(=O)N[C@@H](Cc2ccccc2)C(=O)N[C@@H](Cc2ccc(O)cc2)C(=O)N[C@@H](CC(=O)O)C1=O [Example 1089] ({CH2CO}-FYD[NHexGly]Y[Ahp(2)]NRA[Ahp(2)]PVSCG-NH2; thioether N-14),0.0379 µM
2,CCCCCCN1CC(=O)N[C@@H](Cc2ccc(O)cc2)C(=O)N[C@@H](CCCCC)C(=O)N[C@@H](CC(N)=O)C(=O)N[C@@H](CCCNC(=N)N)C(=O)N[C@@H](C)C(=O)N[C@@H](CCCCC)C(=O)N2CCC[C@H]2C(=O)N[C@@H](C(C)C)C(=O)N[C@@H](CO)C(=O)N[C@H](C(=O)NCC(=O)O)CSCC(=O)N[C@@H](Cc2ccccc2)C(=O)N[C@@H](Cc2ccc(O)cc2)C(=O)N[C@@H](CC(=O)O)C1=O [Example 1090] ({CH2CO}-FYD[NHexGly]Y[Ahp(2)]NRA[Ahp(2)]PVSCG-OH; thioether N-14),0.008 µM
3,CCCCCCN1CC(=O)N[C@@H](Cc2ccc(O)cc2)C(=O)N[C@@H](CC(C)C)C(=O)NCC(=O)N[C@@H](CCCNC(=N)N)C(=O)N[C@@H](CCCCN)C(=O)N[C@@H](CCCCC)C(=O)N2CCC[C@H]2C(=O)N[C@@H](C(C)C)C(=O)N[C@@H](CO)C(=O)N[C@H](C(=O)NCC(=O)O)CSCC(=O)N[C@@H](Cc2ccccc2)C(=O)N[C@@H](Cc2ccc(O)cc2)C(=O)N[C@@H](CC(=O)O)C1=O [Example 1091] ({CH2CO}-FYD[NHexGly]YLGRK[Ahp(2)]PVSCG-OH; thioether N-14),0.0053 µM
4,CCCCCCN1CC(=O)N[C@@H](Cc2ccc(O)cc2)C(=O)N[C@@H](CC(C)C)C(=O)NCC(=O)N[C@@H](CCCNC(=N)N)C(=O)N[C@@H](CCCCN)C(=O)N[C@@H](CCCCC)C(=O)N2CCC[C@H]2C(=O)N[C@@H](C(C)C)C(=O)N[C@@H](CO)C(=O)N[C@H](C(=O)NCC(N)=O)CSCC(=O)N[C@@H](Cc2ccccc2)C(=O)N[C@@H](Cc2ccc(O)cc2)C(=O)N[C@@H](CC(=O)O)C1=O [Example 1092] ({CH2CO}-FYD[NHexGly]YLGRK[Ahp(2)]PVSCG-NH2; thioether N-14),0.0271 µM
5,CCCCCCN1CC(=O)N[C@@H](Cc2ccc(O)cc2)C(=O)N[C@@H](CCCCC)C(=O)NCC(=O)N[C@@H](CCCNC(=N)N)C(=O)N[C@@H](Cc2ccc(O)cc2)C(=O)N[C@@H](CCCCC)C(=O)N2CCC[C@H]2C(=O)N[C@@H](C(C)C)C(=O)N[C@@H](CO)C(=O)N[C@H](C(=O)NCC(N)=O)CSCC(=O)N[C@@H](Cc2ccccc2)C(=O)N[C@@H](Cc2ccc(O)cc2)C(=O)N[C@@H](CC(=O)O)C1=O [Example 1093] ({CH2CO}-FYD[NHexGly]Y[Ahp(2)]GRY[Ahp(2)]PVSCG-NH2; thioether N-14),0.0404 µM

# Continued, values first:
row,IC50,Compound
1,0.0378 µM,CCCCC[C@@H]1NC(=O)[C@H](CCCC)N(C)C(=O)[C@H](CCCN)NC(=O)[C@H](CC(N)=O)NC(=O)[C@H](CC(C)C)NC(=O)[C@H](Cc2ccc(O)cc2)NC(=O)CN(CCCc2ccccc2)C(=O)[C@H](CC(=O)O)NC(=O)[C@H](Cc2ccc(O)cc2)NC(=O)[C@H](Cc2ccccc2)NC(=O)CSC[C@@H](C(=O)NCC(N)=O)NC(=O)[C@H](CO)NC(=O)[C@H](C(C)(C)C)NC(=O)[C@@H]2CCCN2C1=O [Example 1084] ({CH2CO}-FYD[N(3-phenylpropyl)Gly]YLN[Orn][NMeNle][Ahp(2)]P[Tle]SCG-NH2; thioether N-14)
2,0.0318 µM,CCCCC[C@@H]1NC(=O)[C@H](CCCC)N(C)C(=O)[C@H](CCCN)NC(=O)[C@H](CC(N)=O)NC(=O)[C@H](CC(C)C)NC(=O)[C@H](Cc2ccc(O)cc2)NC(=O)CN(CCCc2ccccc2)C(=O)[C@H](CC(=O)O)NC(=O)[C@H](Cc2ccc(O)cc2)NC(=O)[C@H](Cc2ccccc2)NC(=O)CSC[C@@H](C(=O)NCC(N)=O)NC(=O)[C@H](CO)NC(=O)[C@H](C(C)C)NC(=O)[C@@H]2CCCN2C1=O [Example 1085] ({CH2CO}-FYD[N(3-phenylpropyl)Gly]YLN[Orn][NMeNle][Ahp(2)]PVSCG-NH2; thioether N-14)
3,0.0407 µM,CCCCC[C@@H]1NC(=O)[C@H](CCCC)N(C)C(=O)[C@H](CCCNC(=N)N)NC(=O)[C@H](CC(N)=O)NC(=O)[C@H](CC(C)C)NC(=O)[C@H](Cc2ccc(O)cc2)NC(=O)CN(CCCc2ccccc2)C(=O)[C@H](CC(=O)O)NC(=O)[C@H](Cc2ccc(O)cc2)NC(=O)[C@H](Cc2ccccc2)NC(=O)CSC[C@@H](C(=O)NCC(N)=O)NC(=O)[C@H](CO)NC(=O)[C@H](C(C)C)NC(=O)[C@@H]2CCCN2C1=O [Example 1086] ({CH2CO}-FYD[N(3-phenylpropyl)Gly]YLNR[NMeNle][Ahp(2)]PVSCG-NH2; thioether N-14)
4,0.0347 µM,CCCCC[C@@H]1NC(=O)[C@H](CCCC)N(C)C(=O)[C@H](CCCNC(=N)N)NC(=O)[C@H](CC(N)=O)NC(=O)[C@H](CC(C)C)NC(=O)[C@H](Cc2ccc(O)cc2)NC(=O)CN(CCCc2ccccc2)C(=O)[C@H](CC(=O)O)NC(=O)[C@H](Cc2ccc(O)cc2)NC(=O)[C@H](Cc2ccccc2)NC(=O)CSC[C@@H](C(=O)NCC(N)=O)NC(=O)[C@H](CO)NC(=O)[C@H](C(C)(C)C)NC(=O)[C@@H]2CCCN2C1=O [Example 1087] ({CH2CO}-FYD[N(3-phenylpropyl)Gly]YLNR[NMeNle][Ahp(2)]P[Tle]SCG-NH2; thioether N-14)
